Reference: patent US7056734B1, “Differentiation of non-insulin producing cells into insulin producing cells by GLP-1 or exendin-4 and uses thereof” (The United States of America as represented by the …, priority 1998, dated 2006)
Like-named read-outs stand apart in the source and are kept apart here.

What was measured:
Wistar rats = assay: Intravenous bolus of exendin-4 or GLP-1, plasma insulin in fasted anesthetized rats; type: in vivo, rat; conditions: for time by which insulin levels return to baseline: 0.4 nmol/kg iv bolus; for urine output during the study: iv bolus, not quantitated
Procedure: Protocols. Wistar rats were fasted overnight. Following anesthesia with 50 mg/kg pentobarbital, a catheter was placed in the femoral artery for blood sampling. A bolus of either exendin-4 or GLP-1 was given into the saphenous vein (iv) over 30 sec to 12 animals, while a bolus of normal saline (NaCl) was given to the other six. The order of the injections was rotated. Blood (taken at −5, 0, 2, 5, 15, 30, 60, 120, and 180 min) was drawn into heparinized tubes containing EDTA and aprotinin for insulin determination (See Example 1). Animals were acclimated to the facility for at least 2 days.
Assays. Plasma glucose was measured by the glucose oxidase method (Wang et al., 1997). Insulin was measured by RIA as previously described (See Example 1). Hb A1c was assayed using a BIO-RAD (Herculas Calif.) DiaSTAT machine which uses low pressure cation exchange chromatography in conjunction with gradient elution to separate hemoglobin subtypes and variants from hemolyzed blood. The separated hemoglobin fractions were monitored by means of absorption of light at 415 nm.
Statistical methods. All results are given as mean±SEM. T tests were based on the results of an F test that looked at the equality of variance of the two means. […] For determination of the EC50 the basal plasma insulin levels were subtracted and the remaining activity at each concentration was expressed as a percent of the maximal activity (achieved by an excess of peptide). This was then transformed into a logit format where logit=ln (% activity/[100-% activity]) and was plotted as a function of the log concentration of the compound.

diabetic mice = assay: Preliminary ip and sc injections, duration of blood sugar lowering; type: in vivo, mouse; conditions: for blood sugars 24 hours after ip and sc injections: preliminary experiments
Procedure: Effects of chronic treatment with exendin-4 in mice. The biological activity of exendin-4, as measured by its ability to lower blood sugar, was much longer than we expected when given ip or subcutaneously to diabetic animals. […] This lead us to design a long-term experiment with exendin-4. At the initiation of the daily ip exendin-4 regimen in the mice fasting blood glucose was 145±51 mg/dl in the non-diabetic mice and 232±38 mg/dl in the diabetic mice. […] Glucose levels dropped to 90±11 mg/dl in the exendin-4-treated animals from 238±51 mg/dl (p<0.002) in the NaCl-treated animals (Table 1). We measured fasting insulin levels in the diabetic animals that received NaCl or exendin-4. They were higher in the animals that received exendin-4 (p<0.002). […] We surmised that the decreased urination in the exendin-4-treated diabetic mice was due to less osmotic diuresis because of lower blood glucose.
This was possibly due to greater variation in the sc technique and perhaps even loss of the peptide during injections in some cases.

pancreata = assay: Proliferation and differentiation of pancreatic cells after GLP-1 infusion or exendin-4 injection; type: in vivo, rat; conditions: for total number of insulin positive cells: GLP-1 continuous infusion or exendin-4 repeated ip injection for at least two days; for time of maximal differentiation effect: GLP-1 continuous infusion, exendin-4 daily bolus; for persistence of increased number of insulin producing cells after treatment is discontinued: rat, in vivo
Procedure: Exendin-4, in contrast, was administered intraperitoneally one time daily for five days according to the protocol of Example 2.

AR42J cells [1] = assay: Amylase release from AR42J cells; type: cell-based, rat
Procedure: Cell Culture. AR42J cells were maintained in Dulbecco's modified Eagle's medium (Gibco, Grand Island, N.Y.) (DMEM) supplemented with 10% Fetal Calf Serum, 100 IU/ml penicillin, 100 μg/ml streptomycin and 2 mM glutamine. Cells from passage 23–36 were used throughout this study.
Amylase Assay. For amylase secretion, cells were washed free of medium with 2 ml phosphate buffered saline (PBS). Incubation was then carried out in DMEM containing 15 mM HEPES, 0.2% bovine serum albumin (BSA) and 0.01% soybean trypsin inhibitor. The hormones and reagents of interest were added for 50 min at 37° C. The incubation medium was then immediately removed for amylase determination and the cells were again washed in 2 ml ice-cold PBS. […] The released amylase was expressed as the percentage of the total amylase activity of the cells.

AR42J cells [2] = assay: Intracellular calcium in single AR42J cells (indo-1); type: cell-based, rat
Procedure: Measurement of intracellular calcium, [Ca^2+]l. AR42J cells were loaded with the fluorescent Ca^2+ probe, indo-1 acetoxymethyl ester (indo-1/AM). […] Both loading with indo-1 and the experiments were carried out at room temperature (22–24° C.). […] The emission field was restricted to a single cell. Indo-1 was excited at 350±5 nm every 5 ms, and the fluorescence emission was split into wavelength bands of 410±5 and 490±5 nm. […] The cell autofluorescence was assessed in a large number of indo-1 non-loaded cells from the same batch. […] Routinely, the cells were exposed to the test solution for 240–300s. Thereafter, the test solution was washed out, while [Ca^2+]l was monitored for additional 120–180s. The test solutions were prepared just prior to the experiment by adding the hormones in standard bathing solution.

| Compound | time by which insulin levels return to baseline (Wistar rats) | urine output during the study (Wistar rats) | blood sugars 24 hours after ip and sc injections (diabetic mice) | total number of insulin positive cells (pancreata) | time of maximal differentiation effect (pancreata) | earliest time at which differentiation effect was observed (pancreata; continuous infusion) | cells in treated pancreata positive for PCNA (pancreata; continuous infusion, five days) | persistence of increased number of insulin producing cells after treatment is discontinued (pancreata) | effect on amylase release when given alone (AR42J cells [1]; 50 min, glucagon 10 or 100 nM, GLP-1 10 nM, insulin 100 nM, 8-Br-cAMP 100 nM, vanadate 1 mM) | effect on CCK-induced amylase release (AR42J cells [1]; combined with CCK (1 nM), genestein 300 μM, vanadate 1 mM) | basal or CCK (1 nM)-induced amylase release after pre-incubation (AR42J cells [1]; pre-incubation 8, 24, 48 or 72 h with GLP-1 (10 nM) and insulin (100 nM)) | peak [Ca2+]i amplitude, increase over resting indo-1 fluorescence ratio (IFR) (AR42J cells [2]; single cells) | AR42J cells showing [Ca2+]i response (AR42J cells [2]; single cells, CCK 1 nM, glucagon 10 nM) | maximal insulin response compared with GLP-1 (Wistar rats; 0.4 nmol/kg iv) | duration of lower blood sugars after an ip dose (diabetic mice) | effect on amylase release when given alone (AR42J cells [1]) | potency on [Ca2+]i relative to GLP-1 (AR42J cells [2]) |
| --- | --- | --- | --- | --- | --- | --- | --- | --- | --- | --- | --- | --- | --- | --- | --- | --- | --- |
| CC[C@H](C)[C@H](NC(=O)[C@H](Cc1ccccc1)NC(=O)[C@H](CCC(=O)O)NC(=O)[C@H](CCCCN)NC(=O)[C@H](C)NC(=O)[C@H](C)NC(=O)[C@H](CCC(N)=O)NC(=O)CNC(=O)[C@H](CCC(=O)O)NC(=O)[C@H](CC(C)C)NC(=O)[C@H](Cc1ccc(O)cc1)NC(=O)[C@H](CO)NC(=O)[C@H](CO)NC(=O)[C@@H](NC(=O)[C@H](CC(=O)O)NC(=O)[C@H](CO)NC(=O)[C@@H](NC(=O)[C@H](Cc1ccccc1)NC(=O)[C@@H](NC(=O)CNC(=O)[C@H](CCC(=O)O)NC(=O)[C@H](C)NC(=O)[C@@H](N)Cc1c[nH]cn1)[C@@H](C)O)[C@@H](C)O)C(C)C)C(=O)N[C@@H](C)C(=O)N[C@@H](Cc1c[nH]c2ccccc12)C(=O)N[C@@H](CC(C)C)C(=O)N[C@H](C(=O)N[C@@H](CCCCN)C(=O)NCC(=O)N[C@@H](CCCNC(=N)N)C(N)=O)C(C)C [GLP-1] | ≤ 10 min | urinated little if any | back to baseline | increase in total number of insulin positive cells | seven days | 1 days | Approximately 20% | at least two weeks | did not influence amylase release | did not influence amylase release | did not increase | 1.5–2.5 fold | approximately 50% | – | – | – | – |
| exendin-4 | ≤ 60 min | obvious increase in urine output | lower blood sugars | increase in total number of insulin positive cells | seven days | – | – | at least two weeks | – | – | – | – | – | approximately doubled | up to 24 hours | did not appear to influence amylase release | approximately one order of magnitude more potent |
